According to patent US20230355597A1, “COMPOUNDS, COMPOSITIONS, AND METHODS FOR THE TREATMENT AND PREVENTION OF AVIAN PATHOGENIC E. COLI (APEC)” (OHIO STATE INNOVATION FOUNDATION, priority 2018, published 2023):
Values after ≈ are worked out from the molar mass of the structure shown. Read-outs that look alike come from different tables or passages of the source. Marks after values point to notes of the source that are not given here.

Assays:
[1] = tested on: APEC O18; assay: Antimicrobial susceptibility profile, CAMHB micro-dilution (CLSI); format: cell-based, avian pathogenic Escherichia coli (APEC); details: (R) = resistant
[2] = tested on: APEC O2-211; assay: as above; format: cell-based, avian pathogenic Escherichia coli (APEC); details: APEC O2-211, CAMHB micro-dilution; (R) = resistant
[3] = tested on: APEC O15; assay: as above; format: cell-based, avian pathogenic Escherichia coli (APEC); details: (R) = resistant
[4] = tested on: APEC O115; assay: as above; format: cell-based, avian pathogenic Escherichia coli (APEC); details: (R) = resistant
[5] = tested on: APEC O78; assay: as above; format: cell-based, avian pathogenic Escherichia coli (APEC); details: (R) = resistant
[6] = tested on: APEC O78-53; assay: as above; format: cell-based, avian pathogenic Escherichia coli (APEC); details: APEC O78-53, CAMHB micro-dilution; (R) = resistant
[7] = tested on: APEC O1-63; assay: as above; format: cell-based, avian pathogenic Escherichia coli (APEC); details: APEC O1-63, CAMHB micro-dilution; (R) = resistant
[8] = tested on: APEC O35; assay: as above; format: cell-based, avian pathogenic Escherichia coli (APEC); details: (R) = resistant
[9] = tested on: APEC O8; assay: as above; format: cell-based, avian pathogenic Escherichia coli (APEC); details: (R) = resistant
[10] = tested on: APEC O109; assay: as above; format: cell-based, avian pathogenic Escherichia coli (APEC); details: (R) = resistant
[11] = tested on: APEC O2; assay: as above; format: cell-based, avian pathogenic Escherichia coli (APEC); details: (R) = resistant
[12] = tested on: APEC O1; assay: as above; format: cell-based, avian pathogenic Escherichia coli (APEC); details: (R) = resistant
[13] = tested on: APEC O115; format: cell-based, avian pathogenic Escherichia coli (APEC); details: APEC O115, M63 media; MIC/MBC
[14] = tested on: APEC O2-211; format: cell-based, avian pathogenic Escherichia coli (APEC); details: APEC O2-211, M63 media; MIC/MBC
[15] = tested on: intracellular APEC O1 in HD11 cells; assay: Intracellular survival assay (cidal SMs); details: O1, HD11, 6 h treatment; superscript = multiple of MIC
[16] = tested on: intracellular APEC O1 in Caco-2 cells; assay: Intracellular survival assay (cidal SMs); details: O1, Caco-2, 6 h treatment; superscript = multiple of MIC
[17] = tested on: intracellular APEC O78 in THP-1 cells; assay: Intracellular survival assay (cidal SMs); details: O78, THP-1, 6 h treatment; superscript = multiple of MIC
[18] = tested on: APEC O78-53; format: cell-based, avian pathogenic Escherichia coli (APEC); details: APEC O78-53, M63 media; MIC/MBC
[19] = tested on: APEC O18; format: cell-based, avian pathogenic Escherichia coli (APEC); details: APEC O18, M63 media; MIC/MBC
[20] = tested on: APEC O35; format: cell-based, avian pathogenic Escherichia coli (APEC); details: APEC O35, M63 media; MIC/MBC
[21] = tested on: APEC O78; assay: Loss of 260/280 nm absorbing materials assay; format: cell-based, avian pathogenic Escherichia coli (APEC); details: 2X MBC, 1 h, *P<0.05 vs DMSO; for Absorbance 260: 260 nm absorbing material in supernatant; for Absorbance 280: 280 nm absorbing material in supernatant
[22] = tested on: intracellular APEC O2 in Caco-2 cells; assay: Intracellular survival assay (cidal SMs); details: O2, Caco-2, 6 h treatment; superscript = multiple of MIC
[23] = tested on: intracellular APEC O78 in Caco-2 cells; assay: Intracellular survival assay (cidal SMs); details: O78, Caco-2, 6 h treatment; superscript = multiple of MIC
[24] = tested on: APEC O78; assay: Confocal microscopy bacterial cytological profiling; format: cell-based, avian pathogenic Escherichia coli (APEC); details: 2X MBC
Description: Confocal and scanning electron microscopy. Confocal microscopy was used for bacterial cytological profiling (BCP) to identify the cellular pathways targeted by SMs as described previously. […] After incubation, treated cultures were centrifuged, washed, and resuspended in 100 μL PBS. […] Cultures were then centrifuged, washed, and resuspended in PBS to 1⁄10th volume of the original cultures.

[25] = tested on: APEC O1; format: cell-based, avian pathogenic Escherichia coli (APEC); details: APEC O1, M63 media; MIC/MBC
[26] = tested on: APEC O1-63; format: cell-based, avian pathogenic Escherichia coli (APEC); details: APEC O1-63, M63 media; MIC/MBC
[27] = tested on: APEC O109; format: cell-based, avian pathogenic Escherichia coli (APEC); details: APEC O109, M63 media; MIC/MBC
[28] = tested on: intracellular APEC O2 in HD11 cells; assay: Intracellular survival assay (cidal SMs); details: O2, HD11, 6 h treatment; superscript = multiple of MIC
[29] = tested on: biofilm embedded APEC O78; assay: MBEC High-throughput assay; format: cell-based, avian pathogenic Escherichia coli (APEC); details: biofilm embedded APEC O78; superscript = multiple of MIC (footnote)
[30] = tested on: intracellular APEC O2 in THP-1 cells; assay: Intracellular survival assay (cidal SMs); details: O2, THP-1, 6 h treatment; superscript = multiple of MIC
[31] = tested on: APEC O78; format: cell-based, avian pathogenic Escherichia coli (APEC); details: APEC O78, M63 media; cell prints MIC/MBC
[32] = tested on: APEC O15; format: cell-based, avian pathogenic Escherichia coli (APEC); details: APEC O15, M63 media; MIC/MBC
[33] = tested on: APEC O2; format: cell-based, avian pathogenic Escherichia coli (APEC); details: APEC O2, M63 media; MIC/MBC
[34] = tested on: Rif^r APEC O78; assay: In vivo efficacy of growth inhibitors in APEC infected broiler chickens
[35] = tested on: intracellular APEC O1 in THP-1 cells; assay: Intracellular survival assay (cidal SMs); details: O1, THP-1, 6 h treatment; superscript = multiple of MIC
[36] = tested on: APEC O8; format: cell-based, avian pathogenic Escherichia coli (APEC); details: APEC O8, M63 media; MIC/MBC
[37] = Pilot experiment in chickens; format: in vivo, chicken
[38] = tested on: intracellular APEC O78 in HD11 cells; assay: Intracellular survival assay (cidal SMs); details: O78, HD11, 6 h treatment; superscript = multiple of MIC

CC1(C)S[C@@H]2[C@H](NC(=O)[C@H](N)c3ccccc3)C(=O)N2[C@H]1C(=O)O [Ampicillin]
MIC [1]: 4 µg/mL (≈ 11.4 µM)
MIC [2]: 4 µg/mL (≈ 11.4 µM)
MIC [3]: 2 µg/mL (≈ 5.72 µM)
MIC [4]: >64 (R) µg/mL
MIC [5]: >64 (R) µg/mL
MIC [6]: 4 µg/mL (≈ 11.4 µM)
MIC [7]: 4 µg/mL (≈ 11.4 µM)
MIC [8]: 2 µg/mL (≈ 5.72 µM)
MIC [9]: 4 µg/mL (≈ 11.4 µM)
MIC [10]: >64 (R) µg/mL
MIC [11]: >64 (R) µg/mL
MIC [12]: >64 (R) µg/mL

CCCCCCCCCCCCCCCC[n+]1ccn(CC#N)c1 [SM6]
MBC [13]: 25 µM
MIC [13]: 12.5 µM
MBC [14]: 12.5 µM
MIC [14]: 12.5 µM
SMs intracellular APEC clearance concentration [15]: 100^d µM
SMs intracellular APEC clearance concentration [16]: 100^d µM
SMs intracellular APEC clearance concentration [17]: 50^c µM
MBC [18]: 25 µM
MIC [18]: 12.5 µM
MBC [19]: 25 µM
MIC [19]: 12.5 µM
MBC [20]: 25 µM
MIC [20]: 12.5 µM
Absorbance 260 [21]: 3.99*
Absorbance 280 [21]: 2.69*
SMs intracellular APEC clearance concentration [22]: 100^d µM
SMs intracellular APEC clearance concentration [23]: 50^c µM
cytological profile (confocal, FM4-64 / SYTO-9) [24]: membrane disruptors
MBC [25]: 25 µM
MIC [25]: 12.5 µM
MBC [26]: 25 µM
MIC [26]: 12.5 µM
MBC [27]: 12.5 µM
MIC [27]: 12.5 µM
SMs intracellular APEC clearance concentration [28]: 50^c µM
MBEC [29]: 12.5^a µM
SMs intracellular APEC clearance concentration [30]: 50^c µM
MBC [31]: 25 µM
MIC [31]: 12.5 µM
MBC [32]: 25 µM
MIC [32]: 12.5 µM
MBC [33]: 25 µM
MIC [33]: 25 µM
reduction of average APEC load in internal organs ([34]; average of liver, heart, lung and kidney, vs untreated control): 1.4 logs
cumulative lesions score ([34]; liver, heart, lung and air-sacs, untreated 6.2): 5.4
reduction of APEC induced mortality ([34]; oral gavage twice a day, 5 days, untreated mortality (58.34%) normalized to 100%): 42.86%
reduction of APEC lesions severity (%), Air-sacs (airsacculitis) ([34]; untreated control = 100%): -41.2%
reduction of APEC lesions severity (%), Heart (pericarditis) ([34]; untreated control = 100%): 20%
reduction of APEC lesions severity (%), Lung (lung congestion) ([34]; untreated control = 100%): 33.3%
reduction of APEC load, Heart ([34]; vs untreated control): 1.3 log CFU/g of tissues
reduction of APEC load, Kidney ([34]; vs untreated control): 1.9 log CFU/g of tissues
reduction of APEC load, Liver ([34]; vs untreated control): 1.2 log CFU/g of tissues
reduction of APEC load, Lung ([34]; vs untreated control): 1.2 log CFU/g of tissues
Body weight gain (BWG) ([34]; weight of live chickens before necropsy minus weight before treatment): 222.18±54.01
SMs intracellular APEC clearance concentration [35]: 100^d µM
MBC [36]: 12.5 µM
MIC [36]: 12.5 µM
impact on chicken health and performance [37]: no negative impact
SMs intracellular APEC clearance concentration [38]: 50^c µM

CN(C)[C@@H]1C(=O)C(C(N)=O)=C(O)[C@@]2(O)C(=O)C3=C(O)c4c(O)cccc4[C@@](C)(O)[C@H]3C[C@@H]12 [Tetracycline]
MIC [1]: 2 µg/mL (≈ 4.5 µM)
MIC [2]: >64 (R) µg/mL
MIC [3]: >64 (R) µg/mL
MIC [4]: >64 (R) µg/mL
MIC [5]: 32 (R) µg/mL
MIC [6]: >64 (R) µg/mL
MIC [7]: 16 (R) µg/mL
MIC [8]: 1 µg/mL (≈ 2.25 µM)
MIC [9]: >64 (R) µg/mL
MIC [10]: 1 µg/mL (≈ 2.25 µM)
MIC [11]: >64 (R) µg/mL
MIC [12]: >64 (R) µg/mL

Colistin
MIC [1]: 1 µg/mL
MIC [2]: 4 (R) µg/mL
MIC [3]: 1 µg/mL
MIC [4]: 1 µg/mL
MIC [5]: 0.25 µg/mL
MIC [6]: 0.5 µg/mL
MIC [7]: 4 (R) µg/mL
MIC [8]: 1 µg/mL
MIC [9]: 1 µg/mL
MIC [10]: 0.5 µg/mL
MIC [11]: 0.5 µg/mL
MIC [12]: 0.5 µg/mL

CCCCCCCCCCCCCCCCn1c[n+](C)c2ccccc21.[Br-] [SM5]
MBC [13]: 12.5 µM
MIC [13]: 12.5 µM
MBC [14]: 12.5 µM
MIC [14]: 12.5 µM
SMs intracellular APEC clearance concentration [15]: 100^d µM
SMs intracellular APEC clearance concentration [16]: 100^d µM
SMs intracellular APEC clearance concentration [17]: 50^c µM
MBC [18]: 12.5 µM
MIC [18]: 12.5 µM
MBC [19]: 12.5 µM
MIC [19]: 12.5 µM
MBC [20]: 25 µM
MIC [20]: 12.5 µM
Absorbance 260 [21]: 4.00*
Absorbance 280 [21]: 2.67*
SMs intracellular APEC clearance concentration [22]: 100^d µM
SMs intracellular APEC clearance concentration [23]: 50^c µM
cytological profile (confocal, FM4-64 / SYTO-9) [24]: membrane disruptors
MBC [25]: 12.5 µM
MIC [25]: 12.5 µM
MBC [26]: 25 µM
MIC [26]: 12.5 µM
MBC [27]: 12.5 µM
MIC [27]: 12.5 µM
SMs intracellular APEC clearance concentration [28]: 50^c µM
MBEC [29]: 25^c µM
SMs intracellular APEC clearance concentration [30]: 50^c µM
MBC [31]: 25 µM
MIC [31]: 12.5 µM
MBC [32]: 12.5 µM
MIC [32]: 12.5 µM
MBC [33]: 25 µM
MIC [33]: 12.5 µM
SMs intracellular APEC clearance concentration [35]: 100^d µM
MBC [36]: 12.5 µM
MIC [36]: 12.5 µM
impact on chicken health and performance [37]: no negative impact
SMs intracellular APEC clearance concentration [38]: 50^c µM
